Measured values taken from US8163790B2, “Metronidazole cocrystals and imipramine cocrystals” (New Form Pharmaceuticals, Inc., priority 2005, dated 2012).
Blank lines part the entries; values can stand above or below the molecule they belong to.

How the values were obtained:
[1] = water at 23° C., 900 mL, 100 rpm
[2] = intrinsic dissolution, 900 mL, 100 rpm, 0.50 cm^2; media 34 mM aqueous NaCl, water at 37° C., water at ambient temperature (medium of the value not stated); relative to imipramine HCl
[3] = Intrinsic dissolution of metronidazole:gallic acid cocrystal (Woods apparatus, UV 318 nm); format: physicochemical; settings: water at 37° C., 900 mL, 100 rpm, 0.50 cm^2, relative to metronidazole
Procedure: Samples of metronidazole and the metronidazole cocrystal were compressed at 1000 psi for approximately one minute. […] A dissolution medium of water was used at 37° C. […] Metronidazole and the metronidazole:gallic acid cocrystal solutions were analyzed with a Cary 50 UV-VIS single-beam spectrophotometer without dilution at room temperature in a 1.000 cm quartz cuvette. […] Wavelength calibration was performed using holmium oxide.

imipramine HCl dissolved from the cocrystal ([1]; at 300 minutes): less than 0.0063 mg/mL
dissolution rate compared with imipramine HCl (in words) ([1]; intrinsic dissolution, rate too slow to quantify accurately): much slower rate
SMILES: CN(C)CCCN1c2ccccc2CCc2ccccc21.Cl.O=C(O)c1ccc2ccccc2c1O

imipramine dissolved from imipramine HCl ([1]; in two minutes): 0.013 mg/mL
SMILES: CN(C)CCCN1c2ccccc2CCc2ccccc21.Cl [imipramine HCl, Imipramine hydrochloride, reference compound]

dissolution rate of the cocrystal as % of the rate of imipramine HCl [2]: about 58%
SMILES: CN(C)CCCN1c2ccccc2CCc2ccccc21.CN(C)CCCN1c2ccccc2CCc2ccccc21.Cl.Cl.O=C(O)C=CC(=O)O [imipramine HCl:fumaric acid cocrystal]

dissolution rate of the cocrystal as % of the rate of metronidazole [3]: about 22%
SMILES: Cc1ncc([N+](=O)[O-])n1CCO.O=C(O)c1cc(O)c(O)c(O)c1 [metronidazole:gallic acid cocrystal]
